In ChEMBL document CHEMBL3351479, “Novel acylureidoindolin-2-one derivatives as dual Aurora B/FLT3 inhibitors for the treatment of acute myeloid leukemia” (Eur J Med Chem, 2014):

Columns and labels:
[1] = system: MV4-11; test: Cytotoxicity against human MV4-11 cells assessed as cell viability after 48 hrs by MTT assay; type: functional, cell-based; conditions: Homo sapiens, MV4-11, 48 h
[2] = system: THP-1; test: Cytotoxicity against human THP1 cells assessed as cell viability after 48 hrs by MTT assay; type: functional, cell-based; conditions: Homo sapiens, THP-1, 48 h
[3] = Cytotoxicity against human HL60 cells assessed as cell viability after 48 hrs by MTT assay; type: functional, cell-based; conditions: HL-60, 48 h
[4] = system: MOLM-13; test: Cytotoxicity against human MOLM13 cells assessed as cell viability after 48 hrs by MTT assay; type: functional, cell-based; conditions: MOLM-13, 48 h
[5] = molecular target: Aurora kinase B (Homo sapiens, UniProt Q96GD4); test: Inhibition of Aurora B (unknown origin) using HLRRASLG substrate at 1 uM
[6] = molecular target: Receptor-type tyrosine-protein kinase FLT3 (Homo sapiens) (UniProt P36888); test: Inhibition of FLT3 (unknown origin) using EAIYAAPFAKKK substrate at 1 uM
[7] = system: THP-1; test: Cytotoxicity against human THP1 cells assessed as cell viability at 1 uM after 48 hrs by MTT assay; type: functional; conditions: THP-1, 48 h, read-out: Activity
[8] = system: MV4-11; test: Cytotoxicity against human MV4-11 cells assessed as cell viability at 1 uM after 48 hrs by MTT assay; type: functional; conditions: MV4-11, 48 h, read-out: Activity
[9] = system: MOLM-13; test: Cytotoxicity against human MOLM13 cells assessed as cell viability at 1 uM after 48 hrs by MTT assay; type: functional; conditions: MOLM-13, 48 h, read-out: Activity
[10] = Cytotoxicity against human HL60 cells assessed as cell viability at 1 uM after 48 hrs by MTT assay; type: functional; conditions: HL-60, 48 h, read-out: Activity
[11] = molecular target: T1, Receptor-type tyrosine-protein kinase FLT3 (Homo sapiens, UniProt P36888); test: Inhibition of FLT3 (unknown origin) using EAIYAAPFAKKK substrate
T1 sequence (P36888 whole entry): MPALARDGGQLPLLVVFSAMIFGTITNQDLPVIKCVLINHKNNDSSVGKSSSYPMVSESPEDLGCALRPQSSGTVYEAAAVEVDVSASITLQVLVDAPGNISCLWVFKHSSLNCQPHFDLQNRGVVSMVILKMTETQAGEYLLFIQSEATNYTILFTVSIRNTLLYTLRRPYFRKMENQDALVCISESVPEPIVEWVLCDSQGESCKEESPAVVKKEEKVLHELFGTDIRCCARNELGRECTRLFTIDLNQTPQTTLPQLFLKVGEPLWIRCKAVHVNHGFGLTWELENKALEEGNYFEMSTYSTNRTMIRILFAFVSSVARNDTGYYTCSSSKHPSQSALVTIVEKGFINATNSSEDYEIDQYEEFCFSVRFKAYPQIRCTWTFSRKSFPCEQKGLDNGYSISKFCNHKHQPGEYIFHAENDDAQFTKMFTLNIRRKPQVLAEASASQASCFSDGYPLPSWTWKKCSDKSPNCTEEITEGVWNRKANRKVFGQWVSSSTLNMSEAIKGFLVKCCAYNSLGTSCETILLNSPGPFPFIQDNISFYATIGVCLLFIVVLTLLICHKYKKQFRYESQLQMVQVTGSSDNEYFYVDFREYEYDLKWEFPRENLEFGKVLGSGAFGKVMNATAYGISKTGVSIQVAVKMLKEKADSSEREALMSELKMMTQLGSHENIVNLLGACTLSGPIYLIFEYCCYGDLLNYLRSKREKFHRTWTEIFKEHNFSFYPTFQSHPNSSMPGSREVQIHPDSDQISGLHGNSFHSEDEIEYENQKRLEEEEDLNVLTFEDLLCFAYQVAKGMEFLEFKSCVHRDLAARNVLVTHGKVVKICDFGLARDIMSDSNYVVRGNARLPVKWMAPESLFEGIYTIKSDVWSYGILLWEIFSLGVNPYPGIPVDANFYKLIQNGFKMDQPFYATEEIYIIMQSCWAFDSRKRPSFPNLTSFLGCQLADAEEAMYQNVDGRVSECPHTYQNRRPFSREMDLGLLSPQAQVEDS

Chain of Aurora kinase B (Q96GD4 whole entry): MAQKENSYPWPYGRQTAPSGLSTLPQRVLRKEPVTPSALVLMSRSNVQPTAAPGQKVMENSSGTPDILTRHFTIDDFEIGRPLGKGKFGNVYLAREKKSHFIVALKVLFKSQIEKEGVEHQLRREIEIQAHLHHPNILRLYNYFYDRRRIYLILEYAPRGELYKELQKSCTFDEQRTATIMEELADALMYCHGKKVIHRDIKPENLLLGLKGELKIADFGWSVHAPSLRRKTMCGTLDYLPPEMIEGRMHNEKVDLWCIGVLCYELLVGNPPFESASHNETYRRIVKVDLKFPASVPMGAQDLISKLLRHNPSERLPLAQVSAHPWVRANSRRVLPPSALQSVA

| inhibition [5] [%] | inhibition [6] [%] | IC50 [11] [nM] | Compound | IC50 [1] [nM] | IC50 [2] [nM] | IC50 [3] [nM] | IC50 [4] [nM] | viability at 1 µM [7] [%] | viability at 1 µM [8] [%] | viability at 1 µM [9] [%] | viability at 1 µM [10] [%] |
| --- | --- | --- | --- | --- | --- | --- | --- | --- | --- | --- | --- |
| 39 |  |  | COc1ccc(C(=O)NC(=O)Nc2ccc3c(c2)/C(=C/c2ccc[nH]2)C(=O)N3)cc1 | 256 | 373 | 301 | 222 |  |  |  |  |
| 59 | 40 |  | COc1ccc(C(=O)NC(=O)Nc2ccc3c(c2)NC(=O)/C3=C/c2ccc(N(C)C)cc2)cc1 | 45.5 | 88.9 | 50.4 | 42.5 |  |  |  |  |
| 61 | 34 |  | COc1ccc(C(=O)NC(=O)Nc2ccc3c(c2)NC(=O)/C3=C/c2ccccc2)cc1 | > 500 | > 500 | > 500 | > 500 | 76 | 64 | 73 | 64 |
| 13 | 6 |  | COc1ccc(C(=O)NC(=O)Nc2ccc3c(c2)NC(=O)/C3=C/c2ccc(Cl)cc2)cc1 | > 500 | > 500 | > 500 | > 500 | 83 | 97 | 101 | 77 |
| 44 | 15 |  | COc1ccc(C(=O)NC(=O)Nc2ccc3c(c2)NC(=O)/C3=C/c2ccco2)cc1 | > 500 | > 500 | > 500 | > 500 | 74 | 70 | 62 | 64 |
| 63 |  | > 1000 | COc1ccc(C(=O)NC(=O)Nc2ccc3c(c2)NC(=O)/C3=C/c2ccc(O)cc2)cc1 | 377 | > 500 | 485 | 351 | 54 |  |  |  |
| 7 | 4 |  | COc1ccc(C(=O)NC(=O)Nc2ccc3c(c2)NC(=O)/C3=C/c2ccncc2)cc1 | > 500 | > 500 | > 500 | > 500 | 96 | 72 | 65 | 95 |
| 56 | 43 |  | COc1ccc(/C=C2/C(=O)Nc3cc(NC(=O)NC(=O)c4ccc(OC)cc4)ccc32)cc1 | 228 | 382 | 336 | 238 |  |  |  |  |

The remaining lines, values behind:

| Compound | inhibition [5] [%] | inhibition [6] [%] | IC50 [11] [nM] | IC50 [1] [nM] | IC50 [2] [nM] | IC50 [3] [nM] | IC50 [4] [nM] | viability at 1 µM [7] [%] | viability at 1 µM [8] [%] | viability at 1 µM [9] [%] | viability at 1 µM [10] [%] |
| --- | --- | --- | --- | --- | --- | --- | --- | --- | --- | --- | --- |
| COc1ccc(C(=O)NC(=O)Nc2cccc3c2NC(=O)/C3=C\c2ccc[nH]2)cc1 | 7 | 7 |  | > 500 | > 500 | 488 | > 500 | 53 | 78 | 72 |  |
| CCOC(=O)CCc1c(C)[nH]c(/C=C2\C(=O)Nc3cc(NC(=O)NC(=O)c4ccc(OC)cc4F)ccc32)c1C |  |  | > 1000 | 15.1 | 53.9 | 29.9 | 10.9 |  |  |  |  |
| O=C(NC(=O)c1ccccc1)Nc1ccc2c(c1)NC(=O)/C2=C\c1ccc[nH]1 |  |  | > 1000 | 240 | 293 | 250 | 238 |  |  |  |  |
| COc1ccc(C(=O)NC(=O)Nc2cccc3c2/C(=C/c2ccc[nH]2)C(=O)N3)cc1 | 11 |  |  | 357 | 356 | 334 | 303 |  |  |  |  |
| COc1cc(OC)cc(C(=O)NC(=O)Nc2ccc3c(c2)NC(=O)/C3=C\c2ccc[nH]2)c1 |  |  | > 1000 | 150 | 300 | 251 | 114 |  |  |  |  |
| COc1ccc(C(=O)NC(=O)Nc2cc3c(cc2F)/C(=C/c2[nH]c(C)c(CCC(=O)O)c2C)C(=O)N3)cc1 |  |  | > 1000 | 26.1 | 64.7 | 28.8 | 30.1 |  |  |  |  |
